Patent US7943580B2, “Polypeptide and the use thereof” (National Cerebral and Cardiovascular Center, priority 2004, dated 2011)

Legend:
conscious rats [1] = test: Blood hormone levels after central administration of NUNP and NSNP; format: in vivo, rat; conditions: for prolactin level in blood: 20 minutes after central administration of 1 nmol
Experimental: (§1) A catheter was placed in the lateral ventricle of Wistar rats (male, 8 weeks old) and housed under controlled conditions with free access to their diet, while they were accustomed to experimental procedures (22°, light-on from 7:00 to 19:00). […] (1) For feed intake during the dark phase, NMS was administered at 18:00 and their feed intake was measured during 19:00 to 7:00. In addition, (2) NMS was administered to 14 hour-fasted rats at 9:00 and immediately thereafter the feed intake was measured for 2 hours.
(§2) Changes in prolactin blood level by central administration were monitored. Central administration to conscious rats was performed in the same way as in EXAMPLE 9. The animal received rat NUNP-36 or rat NSNP-37 prepared by the procedure of EXAMPLE 14 and dissolved in physiological saline and then decapitated, followed by blood collection in 20 minutes or blood collection via the tail vein at each time after peptide administration. Prolactin was measured using RIA kit (Amersham). A direct effect on pituitary anterior cells was also examined. The pituitary anterior cells were prepared from Wistar rats (5 week old, male), incubated in a 96-well plate for 2 days and used for the experiment. After rat NUNP-36 or rat NSNP-37 was added, the culture supernatant was recovered 30 minutes after and the prolactin level was measured.

pituitary anterior cells = test: Prolactin release from primary culture of anterior pituitary cells; format: cell-based; conditions: primary culture of rat anterior pituitary cells, supernatant recovered 30 minutes after addition
Experimental: as §2

conscious rats [2] = test: Blood hormone levels after central administration of NUNP and NSNP; format: in vivo, rat; conditions: 20 minutes after central administration of 1 nmol
Wistar rats [3] = test: Phase shift of circadian rhythms in spontaneous locomotor activity; format: in vivo, rat
Experimental: Male Wistar rats (300-350 g) were used for the experiment of circadian rhythm phase shift. Intracerebroventricular administration was performed in accordance with the method of Ida et al. (Ida, T., et al., (1999) Brain Res., 821, 526, 1999). The spontaneous locomotor activity was measured by the method of Nakahara et al. (Nakahara, K., et al., Biochem. Biophys. Res. Commun., 318, 156, 2004). The phase shift of spontaneous locomotor activity rhythm was calculated based on the distance between the lines drawn by plotting a delay in time of daily onset of spontaneous locomotor activity for at least 10 days before and after the intracerebroventricular administration of NMS or physiological saline. The onset time of spontaneous locomotor activity was designated as CT12 (circadian time 12). Phase-response data were evaluated using one-way ANOVA followed by Scheffe's multiple comparisons test. […] At 90 minutes after the administration, rats were perfused with 2% paraformaldehyde. Immunostaining for c-Fos protein was performed according to the method of Date et al. (Date, Y, et al., Proc. Natl. Acad. Sci. USA, 96, 748, 1999). The intra-suprachiasmatic nucleus perfusion was performed by an improvement of the Piggins et al. method (Piggins, H. D., et al., J. Neurosci., 15, 5612, 1995). Rats were allowed to free run under constant dark conditions for 2 weeks. Each rat was then implanted with a 26-gauge stainless steel guide cannula in the stereotaxic coordinates by Paxinos and Watson (Paxinos, G. and Watson, C., The rat brain in stereotaxic coordinates, Academic Press, New York, USA, 1998) to reach the suprachiasmatic nucleus. […] The spontaneous locomotor activity was recorded for 2 weeks before and after the administration, respectively, according to the method of Nakahara et al. (Nakahara, K., et al., Biochem. Biophys. Res. Commun., 318, 156, 2004). At the conclusion of the experiment, the exact location of the cannula was determined histologically as follows. Rats received 1 μl of India ink to mark the administered site and were then decapitated. The brain was immediately frozen and cut on a cryostat into 20 μm coronal sections, followed by staining with Crystal Violet. The sections were analyzed by comparing to the corresponding rat brain atlas of Paxinos and Watson (Paxinos, G. and Watson, C., The rat brain in stereotaxic coordinates, Academic Press, New York, USA, 1998). When data obtained for the location was more than 200 μm away from the external border of the suprachiasmatic nucleus, the data was excluded from further analysis.

c-Fos protein = test: Immunostaining for c-Fos protein in the suprachiasmatic nucleus after intracerebroventricular administration; format: in vivo, rat; conditions: intracerebroventricular 1 nmol at CT6, 90 minutes after administration, compared to physiological saline
Experimental: Male Wistar rats (300-350 g) were used for the experiment of circadian rhythm phase shift. Intracerebroventricular administration was performed in accordance with the method of Ida et al. (Ida, T., et al., (1999) Brain Res., 821, 526, 1999). The spontaneous locomotor activity was measured by the method of Nakahara et al. (Nakahara, K., et al., Biochem. Biophys. Res. Commun., 318, 156, 2004). The phase shift of spontaneous locomotor activity rhythm was calculated based on the distance between the lines drawn by plotting a delay in time of daily onset of spontaneous locomotor activity for at least 10 days before and after the intracerebroventricular administration of NMS or physiological saline. […] Phase-response data were evaluated using one-way ANOVA followed by Scheffe's multiple comparisons test. […] The spontaneous locomotor activity was recorded for 2 weeks before and after the administration, respectively, according to the method of Nakahara et al. (Nakahara, K., et al., Biochem. Biophys. Res. Commun., 318, 156, 2004). At the conclusion of the experiment, the exact location of the cannula was determined histologically as follows. […] The sections were analyzed by comparing to the corresponding rat brain atlas of Paxinos and Watson (Paxinos, G. and Watson, C., The rat brain in stereotaxic coordinates, Academic Press, New York, USA, 1998). […]

Wistar rats [4] = test: Effect on feed intake by central administration; format: in vivo, rat
Experimental: as §1

chick rectum = test: Contractile activity on the chick rectum; conditions: dose of 10 pmol, 37° C., Krebs-Henseleit solution
Experimental: Contraction of the rectum was then measured.

conscious rats [5] = test: Prolactin release suppressing activity by central administration of NMS; format: in vivo, rat; conditions: 20 minutes after central administration of 1 nmol
Experimental: as §1
Changes in prolactin blood level by central administration of NMS were monitored. Central administration to conscious rats was performed as in EXAMPLE 9. Blood was collected by decapitation 20 minutes after peptide administration. Prolactin was assayed using RIA kit (Amersham).

Sprague-Dawley rats = test: Hypertensive activity by transvenous administration to rat; conditions: dose of 3 nmol/kg, pentobarbital-anesthetized rats

## rat NUNP-36: rat neuromedin U N-terminal peptide-36, SEQ ID NO: 40 (FLFHYSKTQKLGNSNVVSSVVHPLLQLVPQLHERRM; listed as Rattus norvegicus)
Conscious rats [1]
  prolactin level in blood: 68.74 ± 10.4 ng/mL
Conscious rats [1]; listed as Rat NUNP-36
  prolactin level in blood: 27.34 ± 5.63 ng/mL
Conscious rats [1]; central administration at 1 nmol and 0.2 nmol
  time at which the prolactin level reached the peak: 20 min
Conscious rats [1]; since 10 minutes after central administration at 1 nmol and 0.2 nmol
  prolactin level in blood, dose and time dependency: significant increase of prolactin level
Pituitary anterior cells
  prolactin in the culture supernatant: no change was noted
Conscious rats [2]
  follicle-stimulating hormone level in blood: 12.26 ± 0.95 ng/mL
  other blood hormone (growth hormone, luteinizing hormone, corticosterone) levels: any significant change was not noted
  thyroid-stimulating hormone level in blood: 4.92 ± 0.22 ng/mL

## LPRLLHTDSRMATIDFPKKDPTTSLGRPFFLFRPRN [rat NMS]
Wistar rats [3]; intracerebroventricular 1 nmol at CT3-9, constant dark conditions
  phase of spontaneous locomotor activity: advances in the phase
Wistar rats [3]; intracerebroventricular 1 nmol at CT22-24, constant dark conditions
  phase of spontaneous locomotor activity: delays in the phase
Wistar rats [3]; intracerebroventricular 1 nmol at any other time, constant dark conditions
  phase of spontaneous locomotor activity: No phase shift was observed
Wistar rats [3]; intracerebroventricular administration, any time
  length of circadian rhythm: not affected
Wistar rats [3]; microinjected directly into the suprachiasmatic nucleus at CT6
  phase of circadian rhythms of spontaneous locomotor activity: phase advances
Wistar rats [3]; microinjected directly into the suprachiasmatic nucleus at CT23
  phase of circadian rhythms of spontaneous locomotor activity: delays
c-Fos protein
  expression of c-Fos protein in the suprachiasmatic nucleus: increased
Wistar rats [4]; 0.5 nmol into the lateral ventricle, 14 hour-fasted rats
  2 hour feed intake of fasted rats: significantly suppressed the feed intake
Wistar rats [4]; administered into the lateral ventricle at 18:00, feed intake measured 19:00 to 7:00
  feed intake during the dark phase: significantly suppressed the feed intake dose-dependently
Wistar rats [4]; dark phase feed intake, lateral ventricle administration
  dose at which the feed intake suppressing effect showed the maximum: 1 nmol
Chick rectum
  contraction of the chick rectum: significant contractile activity
Conscious rats [5]
  blood prolactin level: 3.6 ± 1.2 ng/mL
Sprague-Dawley rats
  blood pressure of rats: significantly increased the blood pressure

## rat NSNP-37: rat neuromedin S N-terminal peptide-37, SEQ ID NO: 10 (FLFHYSRAWKSTHPVNSEFAPVHPLMRLAAKLPSRRM; listed as Rattus norvegicus)
Conscious rats [2]
  follicle-stimulating hormone level in blood: 10.64 ± 0.72 ng/mL
  other blood hormone (growth hormone, luteinizing hormone, corticosterone) levels: any significant change was not noted
  thyroid-stimulating hormone level in blood: 5.37 ± 0.51 ng/mL
